From PubChem BioAssay AID252 (DTP/NCI, 2004)
Values joined by “and” are separate entries in the source; they are usually repeats but may differ in a detail not shown here. Equal values may be shown once. Toxic doses and inconclusive results are not listed.

System: BDF1 mice, intracerebral L1210 leukemia, survival T/C
Assay: NCI In Vivo Anticancer Drug Screen. Data for tumor model L1210 Leukemia (intracerebral) in B6D2F1 (BDF1) mice
Settings: endpoint: mean survival time, higher = longer survival
Summary of the method: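 Readout is the T/C ratio: survival of compound-treated animals over that of vehicle-treated controls, in mice bearing transplantable tumour.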

[1] = dose: 1.0 mg/kg/injection, schedule: Q01DX009 (ip), vehicle: saline
[2] = dose: 2.0 mg/kg/injection, schedule: Q01DX009 (ip), vehicle: saline
[3] = dose: 125.0 mg/kg/injection, schedule: Q01DX001 (ip), vehicle: carboxymethylcellulose (CMC)
[4] = dose: 500.0 mg/kg/injection, schedule: Q01DX001 (ip), vehicle: carboxymethylcellulose (CMC)

CC[C@H]1CN2CCc3cc(OC)c(OC)cc3[C@@H]2C[C@@H]1C[C@H]1NCCc2cc(OC)c(OC)cc21
T/C (dose: 1.0 mg/kg/injection, schedule: Q01DX005 (ip), vehicle: saline): 101 % of control
T/C [1]: 100 % of control
T/C (dose: 2.0 mg/kg/injection, schedule: Q01DX005 (ip), vehicle: saline): 100 % of control
T/C [2]: 98 % of control
T/C (dose: 2.0 mg/kg/injection, schedule: Q04DX003 (ip), vehicle: saline): 101 % of control
T/C (dose: 4.0 mg/kg/injection, schedule: Q01DX005 (ip), vehicle: saline): 98 % of control
T/C (dose: 4.0 mg/kg/injection, schedule: Q01DX009 (ip), vehicle: saline): 101 % of control
T/C (dose: 4.0 mg/kg/injection, schedule: Q04DX003 (ip), vehicle: saline): 101 % of control
T/C (dose: 4.0 mg/kg/injection, schedule: Q08DX002 (ip), vehicle: saline): 100 % of control
T/C (dose: 8.0 mg/kg/injection, schedule: Q01DX005 (ip), vehicle: saline): 98 % of control
T/C (dose: 8.0 mg/kg/injection, schedule: Q01DX009 (ip), vehicle: saline): 100 % of control
T/C (dose: 8.0 mg/kg/injection, schedule: Q04DX003 (ip), vehicle: saline): 96 % of control
T/C (dose: 8.0 mg/kg/injection, schedule: Q08DX002 (ip), vehicle: saline): 97 % of control
T/C (dose: 16.0 mg/kg/injection, schedule: Q01DX005 (ip), vehicle: saline): 87 % of control
T/C (dose: 16.0 mg/kg/injection, schedule: Q04DX003 (ip), vehicle: saline): 104 % of control
T/C (dose: 16.0 mg/kg/injection, schedule: Q08DX002 (ip), vehicle: saline): 100 % of control
T/C (dose: 32.0 mg/kg/injection, schedule: Q04DX003 (ip), vehicle: saline): 106 % of control
T/C (dose: 32.0 mg/kg/injection, schedule: Q08DX002 (ip), vehicle: saline): 112 % of control

CCNC1=C(N2CC2)C(=O)C(NCC)=C(N2CC2)C1=O
T/C (dose: 0.37 mg/kg/injection, schedule: Q01DX009 (ip), vehicle: saline): 101 % of control and 100 % of control
T/C (dose: 0.75 mg/kg/injection, schedule: Q01DX009 (ip), vehicle: saline): 104 % of control and 117 % of control
T/C (dose: 1.5 mg/kg/injection, schedule: Q01DX009 (ip), vehicle: saline): 124 % of control

O=NN(CCCl)C(=O)N[C@@H]1CCC[C@@H](O)C1
T/C (dose: 8.0 mg/kg/injection, schedule: Q01DX001 (ip), vehicle: saline with Tween-80): 118 % of control
T/C (dose: 20.0 mg/kg/injection, schedule: Q01DX001 (ip), vehicle: saline with Tween-80): 361 % of control
T/C (dose: 30.0 mg/kg/injection, schedule: Q01DX001 (ip), vehicle: saline with Tween-80): 413 % of control
T/C (dose: 44.0 mg/kg/injection, schedule: Q01DX001 (ip), vehicle: saline with Tween-80): 260 % of control

CCN(N=O)C(N)=O
T/C (dose: 67.0 mg/kg/injection, schedule: Q01DX001 (ip), vehicle: carboxymethylcellulose (CMC)): 97 % of control
T/C (dose: 100.0 mg/kg/injection, schedule: Q01DX001 (ip), vehicle: carboxymethylcellulose (CMC)): 105 % of control
T/C (dose: 150.0 mg/kg/injection, schedule: Q01DX001 (ip), vehicle: carboxymethylcellulose (CMC)): 104 % of control

O=NN(CCCl)C(=O)Nc1ccc2c(c1)CCCC2
T/C [3]: 157 % of control
T/C (dose: 178.0 mg/kg/injection, schedule: Q01DX001 (ip), vehicle: carboxymethylcellulose (CMC)): 150 % of control
T/C (dose: 187.0 mg/kg/injection, schedule: Q01DX001 (ip), vehicle: carboxymethylcellulose (CMC)): 97 % of control
T/C (dose: 238.0 mg/kg/injection, schedule: Q01DX001 (ip), vehicle: carboxymethylcellulose (CMC)): 100 % of control

CN(N=O)C(=O)NCCSc1ncnc2nc[nH]c12
T/C (dose: 400.0 mg/kg/injection, schedule: Q01DX001 (ip), vehicle: carboxymethylcellulose (CMC)): 113 % of control
T/C [4]: 121 % of control

COc1ccc(NC(=O)N(CCCl)N=O)cc1
T/C (dose: 4.4 mg/kg/injection, schedule: Q01DX015 (ip), vehicle: saline): 105 % of control
T/C (dose: 6.6 mg/kg/injection, schedule: Q01DX015 (ip), vehicle: saline): 113 % of control
T/C (dose: 9.9 mg/kg/injection, schedule: Q01DX001 (ip), vehicle: carboxymethylcellulose (CMC)): 104 % of control
T/C (dose: 10.0 mg/kg/injection, schedule: Q01DX015 (ip), vehicle: saline): 113 % of control
T/C (dose: 15.0 mg/kg/injection, schedule: Q01DX001 (ip), vehicle: saline): 102 % of control
T/C (dose: 15.0 mg/kg/injection, schedule: Q01DX015 (ip), vehicle: saline): 124 % of control
T/C (dose: 19.8 mg/kg/injection, schedule: Q01DX001 (ip), vehicle: carboxymethylcellulose (CMC)): 108 % of control
T/C (dose: 22.0 mg/kg/injection, schedule: Q01DX015 (ip), vehicle: saline): 104 % of control
T/C (dose: 30.0 mg/kg/injection, schedule: Q01DX001 (ip), vehicle: saline): 105 % of control
T/C (dose: 39.6 mg/kg/injection, schedule: Q01DX001 (ip), vehicle: carboxymethylcellulose (CMC)): 102 % of control
T/C (dose: 60.0 mg/kg/injection, schedule: Q01DX001 (ip), vehicle: saline): 108 % of control
T/C (dose: 120.0 mg/kg/injection, schedule: Q01DX001 (ip), vehicle: saline): 113 % of control
T/C (dose: 240.0 mg/kg/injection, schedule: Q01DX001 (ip), vehicle: saline): 111 % of control

O=NN(CCCl)C(=O)N[C@H]1CCCC[C@H]1Cl
T/C (dose: 8.0 mg/kg/injection, schedule: Q01DX001 (ip), vehicle: carboxymethylcellulose (CMC)): 103 % of control
T/C (dose: 12.0 mg/kg/injection, schedule: Q01DX001 (ip), vehicle: carboxymethylcellulose (CMC)): 106 % of control and 110 % of control and 90 % of control
T/C (dose: 18.0 mg/kg/injection, schedule: Q01DX001 (ip), vehicle: carboxymethylcellulose (CMC)): 106 % of control
T/C (dose: 40.0 mg/kg/injection, schedule: Q01DX001 (ip), vehicle: carboxymethylcellulose (CMC)): 117 % of control
T/C (dose: 51.0 mg/kg/injection, schedule: Q01DX001 (ip), vehicle: carboxymethylcellulose (CMC)): 281 % of control and 306 % of control
T/C (dose: 54.0 mg/kg/injection, schedule: Q01DX001 (ip), vehicle: carboxymethylcellulose (CMC)): 198 % of control
T/C (dose: 62.0 mg/kg/injection, schedule: Q01DX001 (ip), vehicle: carboxymethylcellulose (CMC)): 159 % of control and 165 % of control and 176 % of control
T/C (dose: 72.0 mg/kg/injection, schedule: Q01DX001 (ip), vehicle: carboxymethylcellulose (CMC)): 251 % of control
T/C (dose: 90.0 mg/kg/injection, schedule: Q01DX001 (ip), vehicle: carboxymethylcellulose (CMC)): 209 % of control and 221 % of control and 270 % of control
T/C (dose: 101.0 mg/kg/injection, schedule: Q01DX001 (ip), vehicle: carboxymethylcellulose (CMC)): 413 % of control and 550 % of control
T/C (dose: 108.0 mg/kg/injection, schedule: Q01DX001 (ip), vehicle: carboxymethylcellulose (CMC)): 307 % of control
T/C (dose: 135.0 mg/kg/injection, schedule: Q01DX001 (ip), vehicle: carboxymethylcellulose (CMC)): 278 % of control and 305 % of control
T/C (dose: 203.0 mg/kg/injection, schedule: Q01DX001 (ip), vehicle: carboxymethylcellulose (CMC)): 119 % of control and 94 % of control

Cc1cccc(C)c1NC(=O)N(CCCl)N=O
T/C (dose: 13.0 mg/kg/injection, schedule: Q01DX001 (ip), vehicle: carboxymethylcellulose (CMC)): 113 % of control
T/C (dose: 20.0 mg/kg/injection, schedule: Q01DX001 (ip), vehicle: carboxymethylcellulose (CMC)): 112 % of control
T/C (dose: 30.0 mg/kg/injection, schedule: Q01DX001 (ip), vehicle: carboxymethylcellulose (CMC)): 119 % of control

Nc1n[nH]c(N)n1
T/C (dose: 100.0 mg/kg/injection, schedule: Q03HX024 (ip), vehicle: saline): 104 % of control and 97 % of control and 100 % of control
T/C (dose: 150.0 mg/kg/injection, schedule: Q03HX024 (ip), vehicle: saline): 102 % of control and 104 % of control and 99 % of control
T/C (dose: 225.0 mg/kg/injection, schedule: Q01DX Z (ip), vehicle: saline): 104 % of control
T/C (dose: 225.0 mg/kg/injection, schedule: Q03HX024 (ip), vehicle: saline): 102 % of control and 108 % of control and 110 % of control
T/C (dose: 335.0 mg/kg/injection, schedule: Q03HX024 (ip), vehicle: saline): 109 % of control and 119 % of control and 121 % of control
T/C (dose: 375.0 mg/kg/injection, schedule: Q01DX Z (ip), vehicle: saline): 108 % of control
T/C (dose: 500.0 mg/kg/injection, schedule: Q03HX024 (ip), vehicle: saline): 109 % of control and 122 % of control
T/C (dose: 750.0 mg/kg/injection, schedule: Q01DX Z (ip), vehicle: saline): 98 % of control

CS(=O)(=O)Nc1ccc(Nc2c3ccccc3nc3cc(N)ccc23)cc1
T/C [1]: 120 % of control
T/C (dose: 1.0 mg/kg/injection, schedule: Q01DX009 (sc), vehicle: saline): 96 % of control
T/C [2]: 98 % of control
T/C (dose: 2.0 mg/kg/injection, schedule: Q01DX009 (sc), vehicle: saline): 103 % of control
T/C (dose: 4.0 mg/kg/injection, schedule: Q01DX009 (sc), vehicle: saline): 104 % of control

CCCCn1cnc2c(SC3CCCC3)ncnc21
T/C [3]: 101 % of control
T/C (dose: 250.0 mg/kg/injection, schedule: Q01DX001 (ip), vehicle: carboxymethylcellulose (CMC)): 108 % of control
T/C [4]: 119 % of control
